The values below come from ChEMBL document CHEMBL1201862, “PubChem BioAssay data set” (2004).

Usually EC50 stands for the concentration that produces a half-maximal response. As usually defined, the AC50 is the concentration at which the activity in the assay is half-maximal. Usually IC50 stands for the point on the concentration scale where inhibition reaches its midpoint. For orientation: CC50 means the concentration at which the toxic effect on the cells reaches its halfway point.

Activity calls are given as the source filed them. A value given as a limit tells only on which side of the number the result lay.

For experiment [1], the target named is Beta-2 adrenergic receptor (Homo sapiens, UniProt P07550). The experiment is described as follows: beta2AR agonists driving receptor internalization, dose response, cell-based, FAP fluorogen, flow cytometry, cherry pick 1 (AID 588763). Format: functional. In general terms: Flow cytometry measures light scatter and fluorescence of single cells or particles in a stream.

The test system of experiment [2] is HEK293. The experiment is described as follows: inhibitors of LMP1-driven NF-kB reporter, dose response, cell-based, HEK293, luciferase, cherry-pick (AID 588343). Format: functional. As to conditions: Homo sapiens.
In experiment [3] the target is Latent membrane protein 1 (Human herpesvirus 4 (strain B95-8), UniProt P03230). The experiment is described as follows: TES1-eGFP NF-kB reporter inhibition versus Tet-On dsRED, dose response, selectivity assay for LMP1 NF-kB inhibitor project, imaging, HEK293T, dual-color eGFP/dsRED, cherry-picks (AID 588398). Format: functional, cell-based.
A short description of experiment [4]: Shn3 3'UTR reporter inhibitors, dose response, cell-based, Clone20 osteoblasts, firefly luciferase, cherry-picked (AID 624132).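 Also: firefly luciferase luminescence from reporter carrying the Shn3 3'UTR in osteoblasts.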 Type of experiment: functional.
Experiment [5] in a line: HepG2 cell cytotoxicity, dose response, cytotoxicity control for Shn3 inhibitor project, CellTiter-Glo, cherry-picked (AID 624134). Type of experiment: functional, cell-based. A general note: Cellular ATP, detected with luciferase, serves as a proxy for viable cell number.
Experiment [6] in a line: control 3'UTR Renilla luciferase suppression, dose response, counter-screen for Shn3 inhibitor project, cell-based, Clone20-Shn3RL, cherry-picked (AID 624133). Format: functional.
For experiment [7], the system named is HeLa. The experiment is described as follows: HeLa cell cytotoxicity, dose response, cytotoxicity control for MITF activator project, CellTiter-Glo luminescence, cherry-pick samples (AID 540259). Format: functional, cell-based. The following applies: Homo sapiens.
The target in experiment [8] is SWI/SNF-related matrix-associated actin-dependent regulator of chromatin subfamily A member 2 (Homo sapiens, UniProt P51531). The experiment is described as follows: Luminescence-based cell-based high throughput dose response assay to identify activators of the function of SWI/SNF related, matrix associated, actin dependent regulator of chromatin, subfamily a, member 2 (SMARCA2, BRM). Type of experiment: functional.
Chain of SWI/SNF-related matrix-associated actin-dependent regulator of chromatin subfamily A member 2 (P51531 whole entry): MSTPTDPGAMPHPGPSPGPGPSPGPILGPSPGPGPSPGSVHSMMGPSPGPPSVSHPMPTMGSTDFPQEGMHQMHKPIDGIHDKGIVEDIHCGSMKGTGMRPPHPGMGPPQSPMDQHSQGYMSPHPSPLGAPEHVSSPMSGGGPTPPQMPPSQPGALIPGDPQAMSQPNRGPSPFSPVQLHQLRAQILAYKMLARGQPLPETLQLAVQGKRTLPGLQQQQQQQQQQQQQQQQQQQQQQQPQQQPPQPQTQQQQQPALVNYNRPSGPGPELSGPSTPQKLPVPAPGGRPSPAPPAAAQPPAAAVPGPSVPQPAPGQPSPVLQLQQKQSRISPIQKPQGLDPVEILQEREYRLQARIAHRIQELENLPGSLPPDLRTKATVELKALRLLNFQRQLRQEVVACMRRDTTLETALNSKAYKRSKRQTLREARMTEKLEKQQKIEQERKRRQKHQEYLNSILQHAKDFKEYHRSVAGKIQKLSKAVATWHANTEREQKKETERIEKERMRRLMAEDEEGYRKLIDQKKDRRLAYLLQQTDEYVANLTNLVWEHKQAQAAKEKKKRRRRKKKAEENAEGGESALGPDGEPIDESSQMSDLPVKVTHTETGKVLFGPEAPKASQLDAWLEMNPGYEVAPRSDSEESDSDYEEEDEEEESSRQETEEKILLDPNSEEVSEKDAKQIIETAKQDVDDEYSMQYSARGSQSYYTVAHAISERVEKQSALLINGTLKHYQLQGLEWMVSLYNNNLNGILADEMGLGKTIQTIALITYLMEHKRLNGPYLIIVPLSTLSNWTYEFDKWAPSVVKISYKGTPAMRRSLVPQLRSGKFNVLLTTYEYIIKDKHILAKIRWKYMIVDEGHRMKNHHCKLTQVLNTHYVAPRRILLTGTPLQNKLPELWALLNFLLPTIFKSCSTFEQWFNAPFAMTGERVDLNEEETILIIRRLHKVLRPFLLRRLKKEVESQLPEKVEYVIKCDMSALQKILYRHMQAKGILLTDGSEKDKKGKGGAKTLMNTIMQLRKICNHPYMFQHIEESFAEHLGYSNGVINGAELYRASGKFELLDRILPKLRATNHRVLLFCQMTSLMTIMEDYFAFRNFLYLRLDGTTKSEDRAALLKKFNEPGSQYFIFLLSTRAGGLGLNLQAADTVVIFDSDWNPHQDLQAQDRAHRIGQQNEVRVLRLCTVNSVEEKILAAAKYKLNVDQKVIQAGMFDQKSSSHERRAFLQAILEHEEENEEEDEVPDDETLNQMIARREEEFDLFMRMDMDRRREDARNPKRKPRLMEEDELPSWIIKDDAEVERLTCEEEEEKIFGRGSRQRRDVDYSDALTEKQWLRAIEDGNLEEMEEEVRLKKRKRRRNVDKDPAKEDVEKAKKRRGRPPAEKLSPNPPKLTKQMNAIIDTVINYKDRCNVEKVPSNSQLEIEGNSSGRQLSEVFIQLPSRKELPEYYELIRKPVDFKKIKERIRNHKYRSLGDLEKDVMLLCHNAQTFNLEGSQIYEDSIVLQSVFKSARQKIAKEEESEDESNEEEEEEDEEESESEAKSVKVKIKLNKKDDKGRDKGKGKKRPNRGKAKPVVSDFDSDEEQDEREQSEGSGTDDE

Experiment [9] in a line: Counterscreen for activators of the function of SWI/SNF related, matrix associated, actin dependent regulator of chromatin, subfamily a, member 2 (SMARCA2, BRM): Luminescence-based cell-based high throughput dose response assay to identify non-selective compounds using the VP16 reporter assay. Type of experiment: functional. On the technique in general: A counterscreen serves to expose hits that act by an unwanted route or on another target.

Experiment [10] is described as follows: inhibitors of intracellular T. cruzi replication, confirmation, NIH3T3 host cells, beta-gal luminescence (AID 2044).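 Also: intracellular parasites grown in NIH/3T3 mouse fibroblasts as host cells; luminescent beta-galactosidase reporter signal from transgenic T. cruzi replicating inside host cells; inhibitors lower the luminescence signal.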 Type of experiment: functional, cell-based.
A short description of experiment [11]: cytotoxicity toward NIH3T3 fibroblasts, dose response, counter-screen, cell-based, ATP luminescence, mouse fibroblasts (AID 2010).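 Also: cells exposed to compound for about 90 hours before reading.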 Format: functional.
Experiment [12] deals with Trypsin (Sus scrofa, UniProt P00761). The experiment is described as follows: porcine trypsin inhibitors, dose response, selectivity assay for Rce1 protease inhibitor project, biochemical, quenched peptide fluorescence, cherry-pick (AID 488789).
Chain of Trypsin (P00761 whole entry): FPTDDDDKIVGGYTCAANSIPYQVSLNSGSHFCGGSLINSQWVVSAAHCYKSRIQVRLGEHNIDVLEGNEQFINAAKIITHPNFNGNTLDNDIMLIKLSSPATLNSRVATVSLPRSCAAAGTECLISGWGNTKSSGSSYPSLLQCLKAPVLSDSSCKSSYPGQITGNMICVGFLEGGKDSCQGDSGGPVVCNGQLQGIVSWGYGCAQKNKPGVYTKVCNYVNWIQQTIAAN
In experiment [13] the target is CAAX prenyl protease 2 (Homo sapiens, UniProt Q9Y256). The experiment is described as follows: human Rce1 protease inhibitors, dose response, biochemical, yeast membranes, quenched-peptide fluorescence, cherry-pick (AID 588849).
Chain of CAAX prenyl protease 2 (Q9Y256 whole entry): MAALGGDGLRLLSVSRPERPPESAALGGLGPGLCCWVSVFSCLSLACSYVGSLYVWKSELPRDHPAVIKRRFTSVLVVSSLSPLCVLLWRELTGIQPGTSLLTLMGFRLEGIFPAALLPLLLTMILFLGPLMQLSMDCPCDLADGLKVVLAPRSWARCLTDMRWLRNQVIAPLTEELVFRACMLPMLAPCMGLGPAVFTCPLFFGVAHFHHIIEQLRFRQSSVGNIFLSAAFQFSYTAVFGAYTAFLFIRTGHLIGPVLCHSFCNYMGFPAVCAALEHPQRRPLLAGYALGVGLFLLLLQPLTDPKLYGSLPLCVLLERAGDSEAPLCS
Experiment [14] has as its target Cysteine protease ATG4B (Homo sapiens, UniProt Q9Y4P1). Format: functional.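 Also: Fluorescence-based dose-response confirmation assay measuring inhibition of ATG4B activity.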
Experiment [15] has as its target Phospholipase A2 (Homo sapiens, UniProt P04054). Format: functional.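 Also: confirmatory dose-response counterscreen on phospholipase A2, testing hits that came from an ultra-high-throughput screen for ATG4B inhibitors.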
Experiment [16] concerns the target Dual specificity tyrosine-phosphorylation-regulated kinase 1A (Rattus norvegicus, UniProt Q63470). Type of experiment: biochemical, Homo sapiens.
Experiment [17] is described as follows: inhibitors of firefly luciferase expression or activity, dose response, H4 neuroglioma cells, luminescence (AID 1990). Type of experiment: functional, cell-based.
Experiment [18] is described as follows: Luminescence Cell-Based Dose Response HTS to Identify Inhibitors of 5'UTR Stem-Loop Driven Prion Protein mRNA Translation in H4 Neuroglioblastoma Cells. [Related pubchem assays: 1827 (Project Summary), 1813 (Primary HTS)]. Type of experiment: functional.
Experiment [19] can be described thus: inhibitors of SNCA 5'UTR-driven reporter translation, confirmation, H4 neuroglioma cells, luminescence (AID 1988). Type of experiment: functional, cell-based.
For experiment [20], the target named is T1, Apoptotic protease-activating factor 1 (Homo sapiens, UniProt O14727).
T1 sequence (O14727 whole entry): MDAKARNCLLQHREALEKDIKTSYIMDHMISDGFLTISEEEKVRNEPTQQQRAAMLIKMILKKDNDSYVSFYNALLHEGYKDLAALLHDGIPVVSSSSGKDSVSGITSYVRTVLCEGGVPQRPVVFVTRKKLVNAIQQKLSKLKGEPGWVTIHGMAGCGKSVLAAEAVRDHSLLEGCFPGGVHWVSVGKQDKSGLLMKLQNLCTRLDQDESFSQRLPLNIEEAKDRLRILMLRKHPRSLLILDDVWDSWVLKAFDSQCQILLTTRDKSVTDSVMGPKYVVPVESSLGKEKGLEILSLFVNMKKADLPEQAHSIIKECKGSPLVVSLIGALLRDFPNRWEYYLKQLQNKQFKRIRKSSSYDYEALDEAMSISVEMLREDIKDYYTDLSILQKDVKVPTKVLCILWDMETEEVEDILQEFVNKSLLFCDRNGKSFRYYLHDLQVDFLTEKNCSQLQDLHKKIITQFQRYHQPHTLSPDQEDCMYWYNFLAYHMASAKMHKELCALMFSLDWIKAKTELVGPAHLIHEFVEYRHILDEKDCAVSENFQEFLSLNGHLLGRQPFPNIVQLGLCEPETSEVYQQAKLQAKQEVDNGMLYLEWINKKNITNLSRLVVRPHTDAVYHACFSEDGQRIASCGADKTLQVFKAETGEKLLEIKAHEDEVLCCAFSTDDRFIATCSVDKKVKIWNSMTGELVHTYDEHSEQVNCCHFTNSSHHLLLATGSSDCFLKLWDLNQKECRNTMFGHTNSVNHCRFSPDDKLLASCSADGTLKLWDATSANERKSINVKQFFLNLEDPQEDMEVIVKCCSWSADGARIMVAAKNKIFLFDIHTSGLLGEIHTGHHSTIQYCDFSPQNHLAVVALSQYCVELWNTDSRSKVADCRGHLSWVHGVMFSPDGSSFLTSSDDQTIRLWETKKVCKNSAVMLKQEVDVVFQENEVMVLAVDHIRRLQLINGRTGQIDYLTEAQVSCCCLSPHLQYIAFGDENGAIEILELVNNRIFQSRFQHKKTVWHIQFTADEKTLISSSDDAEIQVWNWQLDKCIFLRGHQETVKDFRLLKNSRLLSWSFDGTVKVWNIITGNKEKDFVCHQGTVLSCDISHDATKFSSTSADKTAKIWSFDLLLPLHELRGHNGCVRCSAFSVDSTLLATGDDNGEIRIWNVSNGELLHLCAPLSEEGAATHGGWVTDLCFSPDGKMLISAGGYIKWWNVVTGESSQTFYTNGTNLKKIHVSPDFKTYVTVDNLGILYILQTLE
Format: functional.

Experiment [21] has as its system Vero. The experiment is described as follows: Vero cell cytotoxicity, cytotoxicity control for flavivirus capping enzyme inhibitors (AID 588742). Format: functional. As to conditions: Chlorocebus sabaeus.
The target of experiment [22] is Genome polyprotein (dengue virus type 2, UniProt P29990). The experiment is described as follows: Dengue-2 NS5 methyltransferase inhibitors, primary screen, biochemical, confirmation dose response (AID 588689). Format: functional.
The nature of experiment [23]: NIH-3T3 fibroblast cytotoxicity, dose response, cytotoxicity control, cell-based, fluorescence, Alamar Blue, secondary assay (AID 2327).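 Also: NIH-3T3 mouse fibroblasts cultured with fluconazole at 8 µg/mL.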 Type of experiment: functional.
In experiment [24] the test system is Streptococcus sp. 'group A'. The experiment is described as follows: growth inhibition of control SK(-) GAS strain, dose response, counter-screen for streptokinase expression inhibitor project, luminescence, kanamycin, BacTiterGlo, confirmation (AID 1900). Type of experiment: functional, organism-based.
The nature of experiment [25]: C. albicans growth with fluconazole, confirmation, fluorescence, retest (AID 2467). Format: functional, cell-based.
In experiment [26] the target is Serine/threonine-protein phosphatase (Candida dubliniensis (strain CD36 / CBS 7987 / NCPF 3949 / NRRLY-17841) (Yeast), UniProt B9W6M3). The experiment is described as follows: calcineurin pathway inhibitors in yeast reporter, dose response, S. cerevisiae, CDRE-lacZ, luminescence, secondary (AID 2388).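 Also: yeast reporter cells carrying a calcineurin-responsive lacZ construct stimulated with calcium chloride; luminescent beta-galactosidase reporter signal in whole cells rather than isolated phosphatase activity; potency for inhibition where a drop in reporter signal means calcineurin blockade.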 Type of experiment: functional, cell-based.
Chain of Serine/threonine-protein phosphatase (B9W6M3 whole entry): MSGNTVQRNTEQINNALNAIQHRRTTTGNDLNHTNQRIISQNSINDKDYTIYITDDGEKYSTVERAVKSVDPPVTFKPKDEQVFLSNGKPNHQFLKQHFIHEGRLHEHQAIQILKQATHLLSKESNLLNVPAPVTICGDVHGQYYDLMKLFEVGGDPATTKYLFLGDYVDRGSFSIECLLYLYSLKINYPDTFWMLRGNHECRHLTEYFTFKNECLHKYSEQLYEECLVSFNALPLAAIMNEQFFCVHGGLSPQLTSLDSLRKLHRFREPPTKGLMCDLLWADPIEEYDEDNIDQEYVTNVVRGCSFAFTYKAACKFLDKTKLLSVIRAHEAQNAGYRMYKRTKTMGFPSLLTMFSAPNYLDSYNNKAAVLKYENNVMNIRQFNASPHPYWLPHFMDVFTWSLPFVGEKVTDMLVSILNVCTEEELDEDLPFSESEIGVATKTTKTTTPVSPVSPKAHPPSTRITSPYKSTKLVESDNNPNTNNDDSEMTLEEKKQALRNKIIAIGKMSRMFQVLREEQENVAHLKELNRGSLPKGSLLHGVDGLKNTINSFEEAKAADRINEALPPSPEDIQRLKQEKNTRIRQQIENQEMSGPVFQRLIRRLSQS
The subject of experiment [27] is Streptococcus. The experiment is described as follows: Group A Streptococcus viability loss, dose response, counter-screen for streptokinase expression inhibitor project, luminescence, BacTiterGlo (AID 1915).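 Also: potency for reduction of bacterial viability or growth.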 Type of experiment: functional, organism-based.
Experiment [28] concerns Vero. The experiment is described as follows: cells. Format: functional. The following applies: Chlorocebus sabaeus.
Experiment [29] has as its target ATP-dependent molecular chaperone HSP82 (Candida albicans (strain WO-1) (Yeast), UniProt C4YTQ8). The experiment is described as follows: loss of DOC-induced GRE-beta-galactosidase reporter signal, dose response, Hsp90 inhibitor project, S. cerevisiae, luminescence (AID 2400).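 Also: beta-galactosidase luminescence from glucocorticoid response element reporter as proxy for Hsp90 function; inhibitor potency where signal loss means Hsp90 inhibition.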 Type of experiment: functional, cell-based.
Experiment [30] concerns the target Prothrombin (Homo sapiens, UniProt P00734). The experiment is described as follows: Thrombin 1536 HTS Dose Response Confirmation. [Related pubchem assays: 1046 (Thrombin 1536 HTS; hits were confirmed in this assay)]. Type of experiment: functional.
The target in experiment [31] is Beta-galactosidase (Escherichia coli, UniProt Q8VNN2). The experiment is described as follows: PubChem AID 485352. Type of experiment: functional.
Chain of Beta-galactosidase (Q8VNN2 whole entry): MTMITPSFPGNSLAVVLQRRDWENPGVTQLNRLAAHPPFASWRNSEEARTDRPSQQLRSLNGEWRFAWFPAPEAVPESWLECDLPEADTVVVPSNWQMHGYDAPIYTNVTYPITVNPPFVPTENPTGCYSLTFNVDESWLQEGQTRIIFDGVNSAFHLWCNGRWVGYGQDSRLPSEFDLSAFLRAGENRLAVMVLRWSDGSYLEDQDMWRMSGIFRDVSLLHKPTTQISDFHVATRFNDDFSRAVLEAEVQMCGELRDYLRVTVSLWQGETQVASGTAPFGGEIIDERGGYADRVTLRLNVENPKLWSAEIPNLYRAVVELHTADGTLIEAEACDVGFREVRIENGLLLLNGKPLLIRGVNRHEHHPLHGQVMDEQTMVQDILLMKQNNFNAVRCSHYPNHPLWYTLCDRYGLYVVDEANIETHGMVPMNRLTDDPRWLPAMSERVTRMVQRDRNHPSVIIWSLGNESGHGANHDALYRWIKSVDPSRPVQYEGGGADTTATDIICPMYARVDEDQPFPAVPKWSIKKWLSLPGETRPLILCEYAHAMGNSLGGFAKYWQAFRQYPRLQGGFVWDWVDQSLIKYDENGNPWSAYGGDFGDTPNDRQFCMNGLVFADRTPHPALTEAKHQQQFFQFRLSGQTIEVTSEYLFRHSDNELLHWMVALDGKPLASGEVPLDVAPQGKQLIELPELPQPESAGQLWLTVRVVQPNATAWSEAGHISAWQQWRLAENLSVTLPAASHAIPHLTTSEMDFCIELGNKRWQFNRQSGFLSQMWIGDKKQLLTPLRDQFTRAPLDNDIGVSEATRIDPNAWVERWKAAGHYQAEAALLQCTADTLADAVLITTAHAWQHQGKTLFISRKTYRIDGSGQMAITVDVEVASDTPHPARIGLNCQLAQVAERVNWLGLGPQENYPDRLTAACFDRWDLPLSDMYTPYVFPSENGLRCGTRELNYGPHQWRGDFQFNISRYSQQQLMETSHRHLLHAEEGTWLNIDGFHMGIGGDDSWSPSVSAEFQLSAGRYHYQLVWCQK
Experiment [32] deals with T2, Type-1 angiotensin II receptor (Homo sapiens, UniProt P30556).
T2 sequence (P30556 whole entry): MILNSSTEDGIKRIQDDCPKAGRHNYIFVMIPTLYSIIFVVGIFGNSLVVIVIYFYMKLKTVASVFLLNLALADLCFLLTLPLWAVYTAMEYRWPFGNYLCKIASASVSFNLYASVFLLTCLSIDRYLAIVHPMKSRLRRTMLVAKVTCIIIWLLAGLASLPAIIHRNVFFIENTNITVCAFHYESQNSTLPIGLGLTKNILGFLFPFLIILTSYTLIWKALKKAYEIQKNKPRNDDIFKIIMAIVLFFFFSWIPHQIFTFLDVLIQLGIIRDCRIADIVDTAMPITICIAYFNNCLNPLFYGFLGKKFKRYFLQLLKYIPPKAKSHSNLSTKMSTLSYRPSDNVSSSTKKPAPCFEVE
The experiment is described as follows: AT1 receptor antagonists, dose response, selectivity assay for APJ receptor antagonist project, cell-based, uHTS hits (AID 463214).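 Also: antagonist potency against angiotensin II stimulated AT1 response.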 Type of experiment: functional.

Chain of Phospholipase A2 (P04054 whole entry): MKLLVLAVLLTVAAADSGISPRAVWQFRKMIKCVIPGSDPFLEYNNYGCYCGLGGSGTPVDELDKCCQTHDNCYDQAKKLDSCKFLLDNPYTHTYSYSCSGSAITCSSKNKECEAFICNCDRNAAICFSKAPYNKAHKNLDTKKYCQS
Chain of Cysteine protease ATG4B (Q9Y4P1 whole entry): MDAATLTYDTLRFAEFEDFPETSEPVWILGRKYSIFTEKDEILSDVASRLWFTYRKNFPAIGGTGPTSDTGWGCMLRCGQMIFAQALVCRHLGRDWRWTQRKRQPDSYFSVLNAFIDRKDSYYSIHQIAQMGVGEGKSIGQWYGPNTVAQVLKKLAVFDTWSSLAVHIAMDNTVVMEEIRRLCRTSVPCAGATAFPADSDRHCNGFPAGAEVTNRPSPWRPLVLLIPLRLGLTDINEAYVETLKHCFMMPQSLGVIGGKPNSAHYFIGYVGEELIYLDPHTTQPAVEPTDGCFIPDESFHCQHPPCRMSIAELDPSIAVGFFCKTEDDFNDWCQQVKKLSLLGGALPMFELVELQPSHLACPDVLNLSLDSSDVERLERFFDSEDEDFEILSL
Chain of ATP-dependent molecular chaperone HSP82 (C4YTQ8 whole entry): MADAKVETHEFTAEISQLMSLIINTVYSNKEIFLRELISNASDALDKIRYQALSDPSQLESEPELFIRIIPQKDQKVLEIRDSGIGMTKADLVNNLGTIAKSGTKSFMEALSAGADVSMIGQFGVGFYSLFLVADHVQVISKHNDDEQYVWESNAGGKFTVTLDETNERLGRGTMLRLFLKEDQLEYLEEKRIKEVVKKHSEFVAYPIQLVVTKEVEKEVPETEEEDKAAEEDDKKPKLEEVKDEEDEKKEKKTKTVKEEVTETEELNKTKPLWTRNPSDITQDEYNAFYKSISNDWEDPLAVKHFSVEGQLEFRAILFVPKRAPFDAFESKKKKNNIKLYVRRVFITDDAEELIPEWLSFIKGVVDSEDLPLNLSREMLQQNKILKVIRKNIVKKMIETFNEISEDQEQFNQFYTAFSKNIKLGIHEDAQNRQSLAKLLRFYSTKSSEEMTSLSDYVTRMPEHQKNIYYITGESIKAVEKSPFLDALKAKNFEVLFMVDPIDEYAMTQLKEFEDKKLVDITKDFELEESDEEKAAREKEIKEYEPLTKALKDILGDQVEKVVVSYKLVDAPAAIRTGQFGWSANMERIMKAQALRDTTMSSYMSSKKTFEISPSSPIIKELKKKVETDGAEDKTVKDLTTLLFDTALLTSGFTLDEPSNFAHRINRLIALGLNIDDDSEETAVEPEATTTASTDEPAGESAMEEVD

Turning to `Cc1ccc(NC(=O)C(c2ccc(Cl)cc2)N2CCCCC2)cc1` (stereo unspecified), the EC50 in experiment [1] was 2.99 µM (active).

For the compound `CC(C)(O)C#Cc1ccc([C@@H]2C[C@H]3CN(c4ccccc4)C(=O)[C@]34CCCN24)s1`, the AC50 is 11.9 µM (active) in [2]; 5.64 µM (active) in experiment [3]; 4.93 µM (active) in experiment [4]; > 70 µM (inactive) in experiment [5]; > 70 µM (inactive) in experiment [6].

Consider `Cc1nc(COC(=O)c2c(C)nn(-c3ccccc3)c2C)cs1`, for which the AC50 in [7] was 76 µM (active). The EC50 in experiment [8] and in experiment [9] was > 91.1 µM (inactive) in each case.

In the case of `COc1ccc(/C=C/c2nc3ccccc3n2Cc2ccccc2OC)cc1`, the EC50 in [10] is 0.663 µM (active); in experiment [11] it was > 60 µM (inconclusive). Moreover, the AC50 in experiment [12] is 3.43 µM (active); in experiment [13], 3.33 µM (active).

For the compound `COc1ccc(N2C(=O)c3ccccc3NC23CCC(C)CC3)cc1` (stereo unspecified), the results for the IC50 in experiment [14] and in experiment [15] were 21.1 µM (inactive) and 7.99 µM (active), respectively.

In the case of `Cc1sc(NC(=O)c2ccco2)nc1-c1ccccc1`, the AC50 in experiment [16] is 3.67 µM (active).

For `Cc1c(CCC(C)C)c(O)n2c(nc3ccccc32)c1C#N`, the values for the EC50 in [17], in [18] and in experiment [19] were 69.3 µM (active), > 120 µM (not active) and > 120 µM (not active), respectively. In experiment [20], the IC50 was 38.6 µM (active).

Consider `O=C(NCC(c1cccs1)N1CCOCC1)c1ccccc1NS(=O)(=O)c1ccc(Cl)c([N+](=O)[O-])c1` (stereo unspecified), for which the CC50 in experiment [21] is 38.8 µM (active). The IC50 in experiment [22] is > 100 µM (active).

For `COc1ccc(C(=O)NC(=S)NNC(=O)c2ccc(C)cc2)cc1`, the EC50 was > 150 µM (inactive) in [23]; 0.361 µM (active) in [24]; 1.12 µM (active) in experiment [25]; > 180 µM (inactive) in experiment [26]; 6.72 µM (active) in [27]; 5.92 µM (active) in [29]. Besides, in [28], the CC50 is > 25 µM (active).

For `O=C(NN=C1CCCCCC1)c1cn(-c2ccccc2)nc1-c1ccccc1`, the IC50 in experiment [30] was > 50 µM (not active); in experiment [14], 13.8 µM (active); in [15] it was 20.8 µM (inactive).

In the case of `Cn1c(-c2ncc(F)cc2F)cc2onc(-c3c(F)cccc3Cl)c2c1=O`, the AC50 in experiment [7] is 98 µM (active).

With `Cc1oc2ncnc(N)c2c1C`, in experiment [16], the AC50 is 1.4 µM (active).

For the compound `CC(C)NC(=S)N/N=C1\CCCCC1C1CCCCC1` (stereo unspecified), the EC50 in [31] was > 40 µM (inactive). Besides, the IC50 in experiment [32] is listed as > 40 µM (not active).
